Patent publication US7420083B2, “Substituted aryloximes” (Wyeth, priority 2003, dated 2008)

How the values were obtained:
human PAI-1 = human PAI-1 (Homo sapiens, UniProt P05121); experiment: Assay for determining the IC50 of inhibition of PAI-1 (active PAI-1 bound to tPA-coated plate, 33B8 antibody detection); assay type: biochemical; settings: human PAI-1 50 ng/ml, pH 7.5
Description: Assay for determining the IC50 of inhibition of PAI-1. This assay is based upon the non-SDS dissociable interaction between tPA and active PAI-1. Assay plates are initially coated with human tPA (10 μg/ml). Test compounds are dissolved in DMSO at 10 mM, then diluted with physiologic buffer (pH 7.5) to a final concentration of 1-50 μM. The test compounds are incubated with human PAI-1 (50 ng/ml) for 15 minutes at room temperature. The tPA-coated plate is washed with a solution of 0.05% Tween 20 and 0.1% BSA, then the plate is blocked with a solution of 3% BSA. An aliquot of the test compound/PAI-1 solution is then added to the tPA-coated plate, incubated at room temperature for 1 hour, and washed. Active PAI-1 bound to the plate is assessed by adding an aliquot of a 1:1000 dilution of the 33B8 monoclonal antibody against human PAI-1, and incubating the plate at room temperature for 1 hour (Molecular Innovations, Royal Oak, Mich.). The plate is again washed, and a solution of goat anti-mouse IgG-alkaline phosphatase conjugate is added at a 1:50,000 dilution in goat serum. The plate is incubated 30 minutes at room temperature, washed, and a solution of alkaline phosphatase substrate is added. The plate is incubated 45 minutes at room temperature, and color development is determined at OD405 nm. The quantitation of active PAI-1 bound to tPA at varying concentrations of the test compound is used to determine the IC50. Results are analyzed using a logarithmic best-fit equation. The assay sensitivity is 5 ng/ml of human PAI-1 as determined from a standard curve ranging from 0-100 ng/ml.

Sequence of human PAI-1 (P05121 24-402): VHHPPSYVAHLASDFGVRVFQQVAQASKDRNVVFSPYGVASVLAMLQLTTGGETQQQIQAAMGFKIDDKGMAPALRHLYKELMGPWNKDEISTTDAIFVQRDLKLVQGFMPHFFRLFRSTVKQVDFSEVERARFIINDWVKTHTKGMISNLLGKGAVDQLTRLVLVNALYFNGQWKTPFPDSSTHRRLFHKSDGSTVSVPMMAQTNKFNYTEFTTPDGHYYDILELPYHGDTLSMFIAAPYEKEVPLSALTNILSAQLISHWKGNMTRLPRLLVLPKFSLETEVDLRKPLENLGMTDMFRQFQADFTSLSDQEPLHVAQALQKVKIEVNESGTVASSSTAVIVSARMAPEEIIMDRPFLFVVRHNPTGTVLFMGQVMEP

| Structure (SMILES) | melting point | IC50 (human PAI-1) |
| --- | --- | --- |
| CC(C)(C)c1ccc(C=NOCCCOc2ccc(CC(=O)O)cc2)cc1 [Compound 4, {4-[3-(4-tert-Butyl-benzylideneaminooxy)-propoxy]-phenyl}-acetic Acid] | 56.2 to 59.2 °C | 34.2 µM |
| CC(=NOCCOc1ccc(C(=O)O)c(OC(=O)c2ccc(C(C)(C)C)cc2)c1)c1ccccc1 [Compound 6] |  | 16.7 µM |
| CC(C)(C)c1ccc(/C=N/OCCOc2ccc(C(=O)O)c(OC(=O)c3ccc(C(C)(C)C)cc3)c2)cc1 [Compound 10, 2-{[4-(tert-Butyl)benzoyl]oxy}-4-{2-[({(E)-[4-(tert-butyl)phenyl]methylidene}amino)oxy]ethoxy}benzoic Acid] | 148.1 to 150.1 °C | 17.8 µM |
| C/C(=N\OCCOc1ccc(C(=O)O)c(OC(=O)c2ccc(-c3ccccc3)cc2)c1)c1ccccc1 [Compound 15, 2-[([1,1′-Biphenyl]-4-ylcarbonyl)oxy]-4-[2-({[(E)-1-phenylethylidene]amino}oxy)ethoxy]benzoic Acid] | 157.5 to 159.1 °C | 18.9 µM |
| O=C(O)c1ccc(OCCCO/N=C/c2ccc(C(F)(F)F)cc2)cc1NC(=O)c1ccccc1C(F)(F)F [Compound 25, 2-{[2-(Trifluoromethyl)benzoyl]amino}-4-{3-[({(1E)-[4-(trifluoromethyl)phenyl]methylidene}amino)oxy]propoxy}benzoic acid] | 147.2 to 147.9 °C | 26.8 µM |
| O=C(Nc1cc(OCCCO/N=C/c2ccc(-c3ccccc3)cc2)ccc1C(=O)O)c1cc(C(F)(F)F)cc(C(F)(F)F)c1 [Compound 31, 4-[3-({[(1E)-1,1′-Biphenyl-4-ylmethylidene]amino}oxy)propoxy]-2-{[3,5-bis(trifluoromethyl)benzoyl]amino}benzoic Acid] | 205 to 206 °C (dec.) | 19.6 µM |

Further lines, results first:

| melting point | IC50 (human PAI-1) | Structure (SMILES) |
| --- | --- | --- |
| 181.9 to 183.4 °C | 4.14 µM | O=C(O)c1ccc(OCCCO/N=C/c2cc(C(F)(F)F)cc(C(F)(F)F)c2)cc1O [Compound 19, 4-{3-[({(E)-[3,5-Bis(trifluoromethyl)phenyl]methylidene}amino)oxy]propoxy}-2-hydroxybenzoic Acid] |
| 149.4 to 151 °C | 16.3 µM | CC/C(=N\OCCCOc1ccc(C(=O)O)c(NC(=O)c2ccc(C(F)(F)F)cc2)c1)c1ccc(C(C)(C)C)cc1 [Compound 21, 4-[3-({[(1E)-1-(4-tert-butylphenyl)propylidene]amino}oxy)propoxy]-2-{[4-(trifluoromethyl)benzoyl]amino}benzoic Acid] |
| 208.6 to 209.6 °C | 4.14 µM | O=C(Nc1cc(OCCCO/N=C/c2ccc(C(F)(F)F)cc2)ccc1C(=O)O)c1ccc(C(F)(F)F)cc1 [Compound 22, 2-{[4-(Trifluoromethyl)benzoyl]amino}-4-{3-[({(1E)-[4-(trifluoromethyl)phenyl]methylidene}amino)oxy]propoxy}benzoic Acid] |
| 121.1 to 122 °C | 17.5 µM | CC(C)(C)c1ccc(/C=N/OCCCOc2ccc(C(=O)O)c(NC(=O)c3ccccc3C(F)(F)F)c2)cc1 [Compound 24, 4-[3-({[(1E)-(4-tert-Butylphenyl)methylidene]amino}oxy)propoxy]-2-{[2-(trifluoromethyl)benzoyl]amino}benzoic acid] |
| 157.5 to 158.5 °C | 15.7 µM | CC(C)(C)c1ccc(/C=N/OCCCOc2ccc(C(=O)O)c(NC(=O)c3cc(C(F)(F)F)cc(C(F)(F)F)c3)c2)cc1 [Compound 27, 2-{[3,5-Bis(trifluoromethyl)benzoyl]amino}-4-[3-({[(1E)-(4-tert-butylphenyl)methylidene]amino}oxy)propoxy]benzoic Acid] |
|  | 15.9 µM | O=C(Nc1cc(OCCCO/N=C/c2ccc(C(F)(F)F)cc2)ccc1C(=O)O)c1ccc(OC(F)(F)F)cc1 [Compound 30, 2-{[4-(Trifluoromethoxy)benzoyl]amino}-4-{3-[({(1E)-[4-(trifluoromethyl)phenyl]methylidene}amino)oxy]propoxy}benzoic Acid] |
| 218 to 219 °C (dec.) | 15.8 µM | O=C(Nc1cc(OCCCO/N=C/c2ccc(C(F)(F)F)cc2)ccc1C(=O)O)c1cc(C(F)(F)F)cc(C(F)(F)F)c1 [Compound 32, 2-{[3,5-Bis(trifluoromethyl)benzoyl]amino}-4-{3-[({(1E)-[4-(trifluoromethyl)phenyl]methylidene}amino)oxy]propoxy}benzoic Acid] |
| 162 to 163 °C | 13.8 µM | CC(C)(C)c1ccc(/C=N/OCc2ccc(C(=O)O)c(Br)c2)cc1 [Compound 33, 2-Bromo-4-[({[(1E)-(4-tert-butylphenyl)methylidene]amino}oxy)methyl]benzoic Acid] |
